Drawing on PubChem BioAssay (NCI), this text covers GI50 and TGI for eight compounds.

Among the test systems are HCT-116 colon; SK-MEL-2 melanoma; A498 renal; T-47D breast; SK-MEL-28 melanoma; KM12 colon; HCT-15 colon; OVCAR-4 ovarian; OVCAR-3 ovarian; RXF 393 renal.
What all share (experiment): inhibition of tumour cell growth, NCI panel, 48 h

The structures appear in SMILES notation.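 48-hour exposure; five concentrations; linearly interpolated endpoints. The concentration for 50% growth inhibition is given as GI50. TGI: total growth inhibition.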

Consider `O=C(Cc1csc2nc(-c3ccc(Br)cc3)cn12)N/N=C/c1ccc(Cl)cc1Cl`, for which the GI50 in the experiment on HCT-116 colon was 17100 nM; with SK-MEL-2 melanoma it was 72000 nM; in the experiment with A498 renal, 29300 nM; in the experiment with T-47D breast, more than 100000 nM; in the experiment with SK-MEL-28 melanoma, more than 100000 nM; in the experiment on KM12 colon, 38200 nM. For the same compound, the GI50 is 25500 nM with HCT-15 colon, 37300 nM in the experiment on OVCAR-4 ovarian, 34900 nM with OVCAR-3 ovarian and 28400 nM in the experiment on RXF 393 renal. Moreover, the TGI in the experiment with HCT-116 colon was 36800 nM; with SK-MEL-2 melanoma it was more than 100000 nM; with A498 renal it was 62700 nM; with T-47D breast, more than 100000 nM; in the experiment with SK-MEL-28 melanoma it was more than 100000 nM; in the experiment on KM12 colon, more than 100000 nM. Also, the TGI in the experiment on HCT-15 colon was 73200 nM; with OVCAR-4 ovarian, more than 100000 nM; with OVCAR-3 ovarian, more than 100000 nM; with RXF 393 renal, 85100 nM.
Turning to `CC[C@H](C)[C@H](NC(=O)NC(C)(C)C)C(=O)N(C)[C@H](C[C@@H](OC(C)=O)c1nc(C(=O)N[C@@H](Cc2ccccc2)C[C@H](C)C(=O)OC)cs1)C(C)C`, the GI50 was 417 nM in the experiment on HCT-116 colon; 405 nM in the experiment on SK-MEL-2 melanoma; 154 nM in the experiment on A498 renal; more than 19000 nM with T-47D breast; 2970 nM with SK-MEL-28 melanoma; 682 nM with KM12 colon. Besides, the GI50 is 686 nM with HCT-15 colon, 1210 nM in the experiment with OVCAR-4 ovarian, 158 nM in the experiment on OVCAR-3 ovarian and 430 nM with RXF 393 renal. The TGI is more than 25000 nM in the experiment on HCT-116 colon; more than 25000 nM in the experiment on SK-MEL-2 melanoma; 4310 nM in the experiment on A498 renal; more than 25000 nM in the experiment with T-47D breast; more than 25000 nM with SK-MEL-28 melanoma; more than 25000 nM in the experiment on KM12 colon. Further, the TGI in the experiment on HCT-15 colon is 6950 nM; in the experiment on OVCAR-4 ovarian it was more than 25000 nM; in the experiment with OVCAR-3 ovarian, 964 nM; in the experiment on RXF 393 renal, more than 20300 nM.
Take `Nc1nccc2c1ccn2-c1cccc(NC(=O)c2ccc(N3CCOCC3)c(C(F)(F)F)c2)c1`: the GI50 with HCT-116 colon was 677 nM; in the experiment with SK-MEL-2 melanoma it was 584 nM; in the experiment with A498 renal, 304 nM; in the experiment with T-47D breast, 1980 nM; in the experiment on SK-MEL-28 melanoma it was 1060 nM; in the experiment on KM12 colon, 313 nM. Also, the GI50 with HCT-15 colon is 443 nM; with OVCAR-4 ovarian, 1770 nM; in the experiment with OVCAR-3 ovarian, 318 nM; in the experiment with RXF 393 renal it was 213 nM. Further, the TGI with HCT-116 colon is 8660 nM; in the experiment on SK-MEL-2 melanoma, 2940 nM; in the experiment with A498 renal, 2050 nM; with T-47D breast it was 29900 nM; with SK-MEL-28 melanoma it was more than 47500 nM; in the experiment with KM12 colon it was 2730 nM. In addition, the TGI in the experiment on HCT-15 colon was more than 22700 nM; with OVCAR-4 ovarian, more than 36100 nM; with OVCAR-3 ovarian, 1410 nM; in the experiment on RXF 393 renal it was 876 nM.
As to `CN(C)c1ccc(Nc2c3ccccc3nc3cc(NC(=O)CCN4CCCC4)ccc23)cc1`, the GI50 in the experiment with HCT-116 colon is 346 nM; with SK-MEL-2 melanoma, 1750 nM; in the experiment with A498 renal it was 442 nM; in the experiment on T-47D breast it was 455 nM; with SK-MEL-28 melanoma, 1460 nM; in the experiment on KM12 colon, 497 nM. The GI50 is 816 nM with HCT-15 colon, 570 nM in the experiment on OVCAR-4 ovarian, 810 nM with OVCAR-3 ovarian and 466 nM in the experiment with RXF 393 renal. The TGI is 1610 nM with HCT-116 colon; 3330 nM with SK-MEL-2 melanoma; 1980 nM with A498 renal; 2430 nM with T-47D breast; 2850 nM in the experiment with SK-MEL-28 melanoma; 1880 nM in the experiment on KM12 colon. The TGI in the experiment on HCT-15 colon was 2200 nM; with OVCAR-4 ovarian, 2160 nM; in the experiment with OVCAR-3 ovarian it was 2250 nM; in the experiment on RXF 393 renal, 1690 nM.
As to `COc1cc2cnc(-c3ccccc3)cc2cc1OC`, the TGI with HCT-116 colon is more than 100000 nM; in the experiment with SK-MEL-2 melanoma, 54600 nM; in the experiment with A498 renal it was 21200 nM; in the experiment with T-47D breast it was more than 100000 nM; in the experiment with SK-MEL-28 melanoma it was more than 100000 nM; in the experiment with KM12 colon, 61200 nM. The TGI is 46500 nM with HCT-15 colon, 82000 nM with OVCAR-4 ovarian, 85600 nM in the experiment on OVCAR-3 ovarian and more than 100000 nM with RXF 393 renal.
For `O=C1/C(=C/c2ccc(Cl)cc2)CCC1CN1CCOCC1` (stereo not given), the TGI in the experiment with HCT-116 colon was 17800 nM; in the experiment on SK-MEL-2 melanoma it was 33800 nM; in the experiment with A498 renal, 36000 nM; in the experiment with T-47D breast, 6250 nM; with SK-MEL-28 melanoma it was 21500 nM; in the experiment with KM12 colon, 10400 nM. The TGI in the experiment with HCT-15 colon was 11600 nM; in the experiment with OVCAR-4 ovarian it was 34100 nM; with OVCAR-3 ovarian it was 15000 nM; in the experiment on RXF 393 renal it was 11200 nM.
As for `C[C@@H](Oc1cc(-n2cnc3ccc(OCC4CCN(C)CC4)cc32)sc1C(N)=O)c1ccccc1Cl`, the GI50 is 61.7 nM in the experiment with HCT-116 colon; 55.9 nM in the experiment with SK-MEL-2 melanoma; 92.7 nM in the experiment with A498 renal; 2860 nM with T-47D breast; 165 nM with SK-MEL-28 melanoma; 50.7 nM in the experiment on KM12 colon. Besides, the GI50 is 99.8 nM with HCT-15 colon, 477 nM in the experiment on OVCAR-4 ovarian, 57.7 nM in the experiment on OVCAR-3 ovarian and 54.6 nM with RXF 393 renal. Besides, the TGI with HCT-116 colon turned out to be 3050 nM; in the experiment on SK-MEL-2 melanoma, 4130 nM; with A498 renal, 713 nM; in the experiment with T-47D breast, 6300 nM; in the experiment on SK-MEL-28 melanoma it was 4620 nM; in the experiment on KM12 colon, 2730 nM. In addition, the TGI with HCT-15 colon was 3390 nM; in the experiment on OVCAR-4 ovarian, 4810 nM; in the experiment with OVCAR-3 ovarian it was 2970 nM; in the experiment with RXF 393 renal, 2760 nM.
On to `COc1cc(OC)c(F)c(COc2cnc(Nc3cnn(CCO)c3)nc2)c1F`, for which the GI50 was 386 nM with HCT-116 colon; 404 nM in the experiment with SK-MEL-2 melanoma; less than 10.7 nM in the experiment with A498 renal; 1680 nM in the experiment with T-47D breast; 1850 nM in the experiment on SK-MEL-28 melanoma; 431 nM in the experiment with KM12 colon. For the same compound, the GI50 was 482 nM in the experiment with HCT-15 colon, 617 nM in the experiment with OVCAR-4 ovarian, 429 nM in the experiment with OVCAR-3 ovarian and 188 nM in the experiment on RXF 393 renal. Also, the TGI in the experiment with HCT-116 colon is more than 100000 nM; with SK-MEL-2 melanoma, 2710 nM; in the experiment on A498 renal, 138 nM; in the experiment on T-47D breast, more than 100000 nM; in the experiment on SK-MEL-28 melanoma, more than 100000 nM; in the experiment with KM12 colon, 7230 nM. In addition, the TGI is more than 100000 nM in the experiment on HCT-15 colon, more than 100000 nM in the experiment on OVCAR-4 ovarian, more than 100000 nM in the experiment on OVCAR-3 ovarian and 2440 nM with RXF 393 renal.
